From US7250399B2, “Compounds having growth hormone releasing activity” (The Administrators of the Tulane Educational Fund, priority 1998, dated 2007)
Values joined by “and” are separate entries in the source; they are usually repeats but may differ in a detail not shown here. Identical values can stand only once.

How the values were obtained:
Growth Hormone release [1] = test: In Vitro Release of Growth Hormone in Rat; assay type: cell-based
Protocol: (§1) In vitro and in vivo activity of certain compounds were determined in rats and adult beagle dogs (in vivo activity only).

Growth Hormone release [2] = test: In Vivo GH Release in Rats (i.v., serum GH by RIA); parameters: species or system Sprague-Dawley rats; conditions: i.v., serum 10 min after injection
Protocol: Immature female Sprague-Dawley rats were obtained from the Charles River Laboratories (Wilmington, Mass.). After arrival they were housed at 25° C. with a 14:10 hour light:dark cycle. Water and Purina rat chow were available ad libitum. Pups were kept with their mothers until 21 days of age.
Twenty-six day old rats, six rats per treatment group, were anesthetized interperitoneally with 50 mg/kg of pentobarbital 20 minutes prior to i.v. treatment with peptide. Normal saline with 0.1% gelatin was the vehicle for intravenous (i.v.) injections of the peptides. The anesthetized rats, weighing 55-65 grams, were injected i.v. with the quantity of grown hormone releasing compounds indicated in Table 3. Injection was made as a 0.1 mL solution into the jugular vein.
All animals were sacrificed by guillotine 10 minutes after final test injection (see Table 3). Trunk blood for the determination of blood GH levels was collected following decapitation. After allowing the blood to clot, it was centrifuged and the serum was separated from the clot. Serum was kept frozen until the day of sampling for radioimmunoassay (RIA) determination of growth hormone levels according to the following procedure, as developed by the National Institute of Arthritis, Diabetes and Digestive and Kidney Diseases (NIADDK).
Reagents are generally added to the RIA analysis tubes at a single sitting, at refrigerator temperature (about 4° C.) in the following sequence: • (a) buffer, • (b) “cold” (i.e., non-radioactive) standard or unknown serum sample to be analyzed, • (c) radio-iodinated growth hormone antigen, and • (d) growth hormone antiserum.
Reagent addition is generally carried out so that there is achieved a final RIA tube dilution of about 1:30,000 (antiserum to total liquid volume; vol:vol).
The mixed reagents are then typically incubated at room temperature (about 25° C.) for about 24 hours prior to addition of a second antibody (e.g., goat or rabbit anti-monkey gamma globulin serum) which binds to and causes precipitation of the complexed growth hormone antiserum. Precipitated contents of the RIA tubes are then analyzed for the number of counts in a specified period of time in a gamma scintillation counter. A standard curve is prepared by plotting number of radioactive counts versus growth hormone (GH) level. GH levels of unknown are then determined by reference to the standard curve.
Serum GH was measured by RIA with reagents provided by the National Hormone and Pituitary Program.
Serum levels in Tables 3 and 4 are recorded in ng/mL in terms of the rat GH standard of 0.61 International Units/mg (IU/mg). Data is recorded as the mean ±standard error of the mean (SEM). Statistical analysis was performed with Student's t-test. In Table 3, the results shown are the average of studies with six rats.

Growth Hormone release [3] = test: In Vivo Release of Growth Hormone in Adult Beagle Dogs; parameters: unit not given here
Protocol: as §1

[4] = compound at .0001 (dose unit not given)
[5] = compound at .0003 (dose unit not given)
[6] = compound at .001 (dose unit not given)
[7] = compound at .003 (dose unit not given)
[8] = compound at .01 (dose unit not given)
[9] = compound at 1 (dose unit not given)
[10] = compound at 3 (dose unit not given)
[11] = compound at .3 (dose unit not given)

CCN(CC)C(=O)C1CCCNC1 (stereo not shown) [N,N-diethylnipecotamide]
In Vitro Release of Growth Hormone in Rat, GH (Growth Hormone release [1]; [4]): 418 ng/mL
In Vitro Release of Growth Hormone in Rat, GH (Growth Hormone release [1]; [5]): 395 ng/mL
In Vitro Release of Growth Hormone in Rat, GH (Growth Hormone release [1]; [6]): 489 ng/mL
In Vitro Release of Growth Hormone in Rat, GH (Growth Hormone release [1]; [7]): 536 ng/mL
In Vitro Release of Growth Hormone in Rat, GH (Growth Hormone release [1]; [8]): 642 ng/mL
In Vivo Release of Growth Hormone in Rat, GH (Growth Hormone release [2]; [9]): 928 ng/mL
In Vivo Release of Growth Hormone in Rat, GH (Growth Hormone release [2]; [10]): 2070 ng/mL
In Vivo Release of Growth Hormone in Rat, GH (Growth Hormone release [2]; compound at 10 (dose unit not given)): 2896 ng/mL
In Vivo Release of Growth Hormone in Rat, GH (Growth Hormone release [2]; compound at 30 (dose unit not given)): 2186 ng/mL
In Vivo Release of Growth Hormone in Rat, GH (Growth Hormone release [2]; [11]): 221 ng/mL
In Vivo Release of Growth Hormone in Adult Beagle Dogs (Growth Hormone release [3]; oral dose 4 mg/kg, time 0 hr, 4 mg/kg): 1.7 and 0.9
In Vivo Release of Growth Hormone in Adult Beagle Dogs (Growth Hormone release [3]; oral dose 4 mg/kg, time 0.5 hr, 4 mg/kg): 57 and 43
In Vivo Release of Growth Hormone in Adult Beagle Dogs (Growth Hormone release [3]; oral dose 4 mg/kg, time 1 hr, 4 mg/kg): 13 and 8
In Vivo Release of Growth Hormone in Adult Beagle Dogs (Growth Hormone release [3]; oral dose 4 mg/kg, time 6 hr, 4 mg/kg): 1.9 and 2.1
In Vivo Release of Growth Hormone in Adult Beagle Dogs (Growth Hormone release [3]; oral dose 4 mg/kg, time 8 hr, 4 mg/kg): 1.7 and 0.9
In Vivo Release of Growth Hormone in Adult Beagle Dogs (Growth Hormone release [3]; oral dose 4F [sic] (mg/kg; F not explained), time 0 hr): 2.7
In Vivo Release of Growth Hormone in Adult Beagle Dogs (Growth Hormone release [3]; oral dose 4F [sic] (mg/kg; F not explained), time 2 hr): 3.7
In Vivo Release of Growth Hormone in Adult Beagle Dogs (Growth Hormone release [3]; oral dose 4F [sic] (mg/kg; F not explained), time 4 hr): 0.9
In Vivo Release of Growth Hormone in Adult Beagle Dogs (Growth Hormone release [3]; oral dose 4F [sic] (mg/kg; F not explained), time 5 hr): 10
In Vivo Release of Growth Hormone in Adult Beagle Dogs (Growth Hormone release [3]; oral dose 4F [sic] (mg/kg; F not explained), time 8 hr): 3.5

Aib-DTrp-DTrp-Phe-Arg-5-aminopentylamide [DTrpPhe-Arg-5-amino pentamide]
In Vitro Release of Growth Hormone in Rat, GH (Growth Hormone release [1]; [4]): 1228 ng/mL
In Vitro Release of Growth Hormone in Rat, GH (Growth Hormone release [1]; [5]): 1416 ng/mL
In Vitro Release of Growth Hormone in Rat, GH (Growth Hormone release [1]; [6]): 1712 ng/mL
In Vitro Release of Growth Hormone in Rat, GH (Growth Hormone release [1]; [7]): 1648 ng/mL
In Vitro Release of Growth Hormone in Rat, GH (Growth Hormone release [1]; [8]): 1621 ng/mL
In Vivo Release of Growth Hormone in Rat, GH (Growth Hormone release [2]; [9]): 2272 ng/mL
In Vivo Release of Growth Hormone in Rat, GH (Growth Hormone release [2]; [10]): 2929 ng/mL
In Vivo Release of Growth Hormone in Rat, GH (Growth Hormone release [2]; compound at .1 (dose unit not given)): 262 ng/mL
In Vivo Release of Growth Hormone in Rat, GH (Growth Hormone release [2]; [11]): 274 ng/mL
In Vivo Release of Growth Hormone in Adult Beagle Dogs (Growth Hormone release [3]; oral dose 1 mg/kg, time 0 hr): 2.5
In Vivo Release of Growth Hormone in Adult Beagle Dogs (Growth Hormone release [3]; oral dose 1 mg/kg, time 0.5 hr): 38
In Vivo Release of Growth Hormone in Adult Beagle Dogs (Growth Hormone release [3]; oral dose 1 mg/kg, time 1 hr): 8.5
In Vivo Release of Growth Hormone in Adult Beagle Dogs (Growth Hormone release [3]; oral dose 1 mg/kg, time 2 hr): 2.8
In Vivo Release of Growth Hormone in Adult Beagle Dogs (Growth Hormone release [3]; oral dose 1 mg/kg, time 3 hr): 2.3
In Vivo Release of Growth Hormone in Adult Beagle Dogs (Growth Hormone release [3]; oral dose 1 mg/kg, time 4 hr): 1.4
In Vivo Release of Growth Hormone in Adult Beagle Dogs (Growth Hormone release [3]; oral dose 1 mg/kg, time 5 hr): 1.7
In Vivo Release of Growth Hormone in Adult Beagle Dogs (Growth Hormone release [3]; oral dose 1 mg/kg, time 6 hr): 2.1
In Vivo Release of Growth Hormone in Adult Beagle Dogs (Growth Hormone release [3]; oral dose 1 mg/kg, time 7 hr): 2
In Vivo Release of Growth Hormone in Adult Beagle Dogs (Growth Hormone release [3]; oral dose 1 mg/kg, time 8 hr): 0.8
In Vivo Release of Growth Hormone in Adult Beagle Dogs (Growth Hormone release [3]; oral dose 2 mg/kg, time 0 hr): 3.1
In Vivo Release of Growth Hormone in Adult Beagle Dogs (Growth Hormone release [3]; oral dose 2 mg/kg, time 0.5 hr): 83
In Vivo Release of Growth Hormone in Adult Beagle Dogs (Growth Hormone release [3]; oral dose 2 mg/kg, time 1 hr): 20
In Vivo Release of Growth Hormone in Adult Beagle Dogs (Growth Hormone release [3]; oral dose 2 mg/kg, time 2 hr): 6.8
In Vivo Release of Growth Hormone in Adult Beagle Dogs (Growth Hormone release [3]; oral dose 2 mg/kg, time 3 hr): 3.9
In Vivo Release of Growth Hormone in Adult Beagle Dogs (Growth Hormone release [3]; oral dose 2 mg/kg, time 4 hr): 2.9
In Vivo Release of Growth Hormone in Adult Beagle Dogs (Growth Hormone release [3]; oral dose 2 mg/kg, time 5 hr): 3.3
In Vivo Release of Growth Hormone in Adult Beagle Dogs (Growth Hormone release [3]; oral dose 2 mg/kg, time 6 hr): 3.1
In Vivo Release of Growth Hormone in Adult Beagle Dogs (Growth Hormone release [3]; oral dose 2 mg/kg, time 7 hr): 3.3
In Vivo Release of Growth Hormone in Adult Beagle Dogs (Growth Hormone release [3]; oral dose 2 mg/kg, time 8 hr): 3
